Data from PubChem BioAssay (NCI).
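Step 1: Grow cells in 96-well plates. Step 2: Expose to compound for 48 hours at 5 concentrations. Step 3: Interpolate endpoints linearly; if unreached, use highest concentration. GI50: concentration for 50% inhibition of growth. TGI denotes the concentration required for complete inhibition of growth.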

Columns and labels:
Test in all cases: NCI anticancer screen, dose series, 48 h
OVCAR-5 ovarian = system: OVCAR-5 ovarian
KM12 colon = system: KM12 colon
HOP-92 NSCLC = system: HOP-92 NSCLC
M14 melanoma = system: M14 melanoma
NCI-H23 lung = system: NCI-H23 lung
A549 NSCLC = system: A549 NSCLC
NCI-H522 lung = system: NCI-H522 lung
U251 CNS = system: U251 CNS
DU-145 prostate = system: DU-145 prostate
K-562 leukemia = system: K-562 leukemia

## O=C(N/N=C\c1ccc(N(CCCl)CCCl)cc1[N+](=O)[O-])c1cccnc1
OVCAR-5 ovarian
  GI50: > 100 µM
  TGI: > 100 µM
KM12 colon
  GI50: > 100 µM
  TGI: > 100 µM
HOP-92 NSCLC
  GI50: > 100 µM
  TGI: > 100 µM
M14 melanoma
  GI50: > 100 µM
  TGI: > 100 µM
NCI-H23 lung
  GI50: > 100 µM
  TGI: > 100 µM
A549 NSCLC
  GI50: > 100 µM
  TGI: > 100 µM
NCI-H522 lung
  GI50: > 100 µM
  TGI: > 100 µM
U251 CNS
  GI50: > 100 µM
  TGI: > 100 µM
DU-145 prostate
  GI50: > 100 µM
  TGI: > 100 µM
K-562 leukemia
  GI50: > 100 µM
  TGI: > 100 µM

## O=C(NC(=O)c1cc(-c2ccccc2)n[nH]1)c1ccccc1
OVCAR-5 ovarian
  TGI: > 100 µM
KM12 colon
  TGI: > 100 µM
HOP-92 NSCLC
  TGI: > 100 µM
M14 melanoma
  TGI: > 100 µM
NCI-H23 lung
  TGI: > 100 µM
A549 NSCLC
  TGI: > 100 µM
NCI-H522 lung
  TGI: > 100 µM
U251 CNS
  TGI: > 100 µM
DU-145 prostate
  TGI: > 100 µM
K-562 leukemia
  TGI: > 100 µM

## COC(=O)c1ccc(C)cc1CC1Cc2ccc(C)cc2C1=O (stereo not given)
OVCAR-5 ovarian
  TGI: 92.4 µM
KM12 colon
  TGI: 22.1 µM
HOP-92 NSCLC
  TGI: 61.4 µM
M14 melanoma
  TGI: 32.2 µM
NCI-H23 lung
  TGI: 74.7 µM
A549 NSCLC
  TGI: 93.5 µM
NCI-H522 lung
  TGI: 5.48 µM
U251 CNS
  TGI: 16.3 µM
DU-145 prostate
  TGI: > 100 µM
K-562 leukemia
  TGI: 10.5 µM

## Cc1ccc(-c2nc(N/N=C/c3ccc(O)cc3)c3ccccc3n2)cc1
OVCAR-5 ovarian
  TGI: 61.9 µM
KM12 colon
  TGI: 41.4 µM
HOP-92 NSCLC
  TGI: > 100 µM
M14 melanoma
  TGI: 18.9 µM
NCI-H23 lung
  TGI: 33.8 µM
A549 NSCLC
  TGI: > 100 µM
NCI-H522 lung
  TGI: 30.1 µM
U251 CNS
  TGI: 65.7 µM
DU-145 prostate
  TGI: 75.2 µM
K-562 leukemia
  TGI: > 100 µM

## O=C(/C=C/c1cccc(Oc2ccccc2)c1)NCc1ccc(C(=O)NCCc2ccccc2)cc1
OVCAR-5 ovarian
  TGI: > 100 µM
KM12 colon
  TGI: > 100 µM
HOP-92 NSCLC
  TGI: > 100 µM
M14 melanoma
  TGI: > 100 µM
NCI-H23 lung
  TGI: > 100 µM
A549 NSCLC
  TGI: > 100 µM
NCI-H522 lung
  TGI: > 100 µM
U251 CNS
  TGI: > 100 µM
DU-145 prostate
  TGI: > 100 µM
K-562 leukemia
  TGI: > 100 µM

## Cc1cc(S(=O)(=O)Nc2nc3ccccc3nc2-c2ccc(Cl)cc2)c(S)cc1Cl
OVCAR-5 ovarian
  TGI: 33.8 µM
KM12 colon
  TGI: 35.4 µM
HOP-92 NSCLC
  TGI: 46.9 µM
M14 melanoma
  TGI: 39.5 µM
NCI-H23 lung
  TGI: 33.4 µM
A549 NSCLC
  TGI: 33.6 µM
NCI-H522 lung
  TGI: 28.3 µM
U251 CNS
  TGI: 34 µM
DU-145 prostate
  TGI: 29.9 µM
K-562 leukemia
  TGI: 70.6 µM

## COc1ccc(N=NC(=O)NC(CC(C)C)C(N)=O)cc1 (stereo not given)
OVCAR-5 ovarian
  TGI: > 100 µM
KM12 colon
  TGI: > 100 µM
HOP-92 NSCLC
  TGI: > 31.6 µM
M14 melanoma
  TGI: > 100 µM
NCI-H23 lung
  TGI: > 100 µM
A549 NSCLC
  TGI: > 31.6 µM
NCI-H522 lung
  TGI: > 100 µM
U251 CNS
  TGI: > 100 µM
DU-145 prostate
  TGI: > 100 µM
K-562 leukemia
  TGI: > 100 µM

## CC(=O)Oc1c2c(c3n(c1=O)CCCC3)C(=O)N(c1ccccc1)C2=O
OVCAR-5 ovarian
  TGI: > 100 µM
KM12 colon
  TGI: > 100 µM
HOP-92 NSCLC
  TGI: > 100 µM
M14 melanoma
  TGI: > 100 µM
NCI-H23 lung
  TGI: > 100 µM
A549 NSCLC
  TGI: > 100 µM
NCI-H522 lung
  TGI: > 100 µM
U251 CNS
  TGI: > 100 µM
DU-145 prostate
  TGI: > 100 µM
K-562 leukemia
  TGI: > 100 µM

## Cc1oc2c(c1C)S(=O)(=O)C(C#N)=C(N(C)C)N2
OVCAR-5 ovarian
  TGI: > 100 µM
KM12 colon
  TGI: > 100 µM
HOP-92 NSCLC
  TGI: > 100 µM
M14 melanoma
  TGI: > 100 µM
NCI-H23 lung
  TGI: > 100 µM
A549 NSCLC
  TGI: > 100 µM
NCI-H522 lung
  TGI: > 100 µM
U251 CNS
  TGI: > 100 µM
DU-145 prostate
  TGI: > 100 µM
K-562 leukemia
  TGI: > 100 µM

## COc1ccc(C2C(C#N)=C(S)N(C3OC(COC(C)=O)C(OC(C)=O)C(OC(C)=O)C3OC(C)=O)C(c3ccccc3)=C2C(C)=O)cc1 (stereo not given)
OVCAR-5 ovarian
  TGI: > 100 µM
KM12 colon
  TGI: > 100 µM
HOP-92 NSCLC
  TGI: > 100 µM
M14 melanoma
  TGI: > 100 µM
NCI-H23 lung
  TGI: > 100 µM
A549 NSCLC
  TGI: > 100 µM
NCI-H522 lung
  TGI: > 100 µM
U251 CNS
  TGI: > 100 µM
DU-145 prostate
  TGI: > 100 µM
K-562 leukemia
  TGI: > 100 µM

## Cn1ncc2c(Cl)ncnc21
OVCAR-5 ovarian
  TGI: > 100 µM
KM12 colon
  TGI: > 100 µM
HOP-92 NSCLC
  TGI: > 100 µM
M14 melanoma
  TGI: > 100 µM
NCI-H23 lung
  TGI: > 100 µM
A549 NSCLC
  TGI: > 100 µM
NCI-H522 lung
  TGI: > 100 µM
U251 CNS
  TGI: > 100 µM
DU-145 prostate
  TGI: > 100 µM
K-562 leukemia
  TGI: > 100 µM

## C[C@@H]1C(=O)C[C@H]2C(C)(C)CCC[C@]2(C)[C@@]1(O)CCc1ccoc1
OVCAR-5 ovarian
  TGI: > 100 µM
KM12 colon
  TGI: > 100 µM
HOP-92 NSCLC
  TGI: > 100 µM
M14 melanoma
  TGI: > 100 µM
NCI-H23 lung
  TGI: > 100 µM
A549 NSCLC
  TGI: > 100 µM
NCI-H522 lung
  TGI: > 100 µM
U251 CNS
  TGI: > 100 µM
DU-145 prostate
  TGI: > 100 µM
K-562 leukemia
  TGI: > 100 µM

## O=C1CC[C@@]2(O)[C@H]3Cc4ccc(-c5ccccc5)c5c4[C@@]2(CCN3CC2CC2)[C@H]1O5
OVCAR-5 ovarian
  TGI: 35.4 µM
KM12 colon
  TGI: 36.6 µM
HOP-92 NSCLC
  TGI: 57.4 µM
M14 melanoma
  TGI: 34 µM
NCI-H23 lung
  TGI: 78.9 µM
A549 NSCLC
  TGI: 43.6 µM
NCI-H522 lung
  TGI: 30.1 µM
U251 CNS
  TGI: 32.1 µM
DU-145 prostate
  TGI: 62.7 µM
K-562 leukemia
  TGI: 63.7 µM

## CC(O)(P(=O)(O)O)P(=O)(O)OCC(O)CN1CCOCC1 (stereo not given)
OVCAR-5 ovarian
  TGI: > 100 µM
KM12 colon
  TGI: > 100 µM
HOP-92 NSCLC
  TGI: > 100 µM
M14 melanoma
  TGI: > 100 µM
NCI-H23 lung
  TGI: > 100 µM
A549 NSCLC
  TGI: > 100 µM
NCI-H522 lung
  TGI: > 100 µM
U251 CNS
  TGI: > 100 µM
DU-145 prostate
  TGI: > 100 µM
K-562 leukemia
  TGI: > 100 µM

## CC(=O)NC(C)(C)C1CCC(C)=C(c2ccccc2)C1 (stereo not given)
OVCAR-5 ovarian
  TGI: > 100 µM
KM12 colon
  TGI: > 100 µM
HOP-92 NSCLC
  TGI: 68.4 µM
M14 melanoma
  TGI: > 100 µM
NCI-H23 lung
  TGI: > 100 µM
A549 NSCLC
  TGI: > 100 µM
NCI-H522 lung
  TGI: > 100 µM
U251 CNS
  TGI: > 100 µM
DU-145 prostate
  TGI: > 100 µM
K-562 leukemia
  TGI: > 100 µM

## O=C(O)c1cnc(-n2[nH]c3c(c2=O)CCCC3)[nH]c1=O
OVCAR-5 ovarian
  TGI: > 100 µM
KM12 colon
  TGI: > 100 µM
HOP-92 NSCLC
  TGI: > 100 µM
M14 melanoma
  TGI: > 100 µM
NCI-H23 lung
  TGI: > 100 µM
A549 NSCLC
  TGI: > 100 µM
NCI-H522 lung
  TGI: > 100 µM
U251 CNS
  TGI: > 100 µM
DU-145 prostate
  TGI: > 100 µM
K-562 leukemia
  TGI: > 100 µM

## CC(=O)Nc1ccc2[nH]c(C(=O)N3CC(CCl)c4c3cc([N+](=O)[O-])c3ccccc43)cc2c1 (stereo not given)
OVCAR-5 ovarian
  TGI: 96.9 µM
KM12 colon
  TGI: > 71.7 µM
HOP-92 NSCLC
  TGI: > 43.7 µM
M14 melanoma
  TGI: > 100 µM
NCI-H23 lung
  TGI: > 100 µM
A549 NSCLC
  TGI: 1.15 µM
NCI-H522 lung
  TGI: 6.61 µM
U251 CNS
  TGI: > 100 µM
DU-145 prostate
  TGI: > 100 µM
K-562 leukemia
  TGI: > 45.8 µM
